# Target: T1, C. albicans γ-TuSC (γ-tubulin small complex; Spc97, Spc98, γ-tubulin/Tub4) (Candida albicans, UniProt O93807)
# T1 construct: full-length, codon-optimized genes, expressed in SF21 insect cells; heterotetramer; N-terminal 91 (Spc97) and 149 (Spc98) residues not resolved; with Spindle pole body component (Spc97); Spindle pole body component (Spc98)
# T1 sequence (O93807 1-502): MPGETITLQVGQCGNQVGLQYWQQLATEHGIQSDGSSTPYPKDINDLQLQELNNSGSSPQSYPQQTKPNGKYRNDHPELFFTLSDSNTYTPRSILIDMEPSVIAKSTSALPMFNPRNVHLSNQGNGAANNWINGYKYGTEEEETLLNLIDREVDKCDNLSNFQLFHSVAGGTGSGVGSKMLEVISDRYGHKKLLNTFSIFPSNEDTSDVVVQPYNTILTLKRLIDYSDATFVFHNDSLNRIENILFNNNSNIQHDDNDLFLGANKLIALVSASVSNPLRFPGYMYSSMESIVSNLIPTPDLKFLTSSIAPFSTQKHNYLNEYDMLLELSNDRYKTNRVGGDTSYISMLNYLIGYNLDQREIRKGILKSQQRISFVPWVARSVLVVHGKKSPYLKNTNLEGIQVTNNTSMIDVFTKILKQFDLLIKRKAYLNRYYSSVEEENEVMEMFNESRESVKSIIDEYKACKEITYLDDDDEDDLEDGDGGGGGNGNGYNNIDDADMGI
# T1 sequence (Q59PZ2 1-871 partner): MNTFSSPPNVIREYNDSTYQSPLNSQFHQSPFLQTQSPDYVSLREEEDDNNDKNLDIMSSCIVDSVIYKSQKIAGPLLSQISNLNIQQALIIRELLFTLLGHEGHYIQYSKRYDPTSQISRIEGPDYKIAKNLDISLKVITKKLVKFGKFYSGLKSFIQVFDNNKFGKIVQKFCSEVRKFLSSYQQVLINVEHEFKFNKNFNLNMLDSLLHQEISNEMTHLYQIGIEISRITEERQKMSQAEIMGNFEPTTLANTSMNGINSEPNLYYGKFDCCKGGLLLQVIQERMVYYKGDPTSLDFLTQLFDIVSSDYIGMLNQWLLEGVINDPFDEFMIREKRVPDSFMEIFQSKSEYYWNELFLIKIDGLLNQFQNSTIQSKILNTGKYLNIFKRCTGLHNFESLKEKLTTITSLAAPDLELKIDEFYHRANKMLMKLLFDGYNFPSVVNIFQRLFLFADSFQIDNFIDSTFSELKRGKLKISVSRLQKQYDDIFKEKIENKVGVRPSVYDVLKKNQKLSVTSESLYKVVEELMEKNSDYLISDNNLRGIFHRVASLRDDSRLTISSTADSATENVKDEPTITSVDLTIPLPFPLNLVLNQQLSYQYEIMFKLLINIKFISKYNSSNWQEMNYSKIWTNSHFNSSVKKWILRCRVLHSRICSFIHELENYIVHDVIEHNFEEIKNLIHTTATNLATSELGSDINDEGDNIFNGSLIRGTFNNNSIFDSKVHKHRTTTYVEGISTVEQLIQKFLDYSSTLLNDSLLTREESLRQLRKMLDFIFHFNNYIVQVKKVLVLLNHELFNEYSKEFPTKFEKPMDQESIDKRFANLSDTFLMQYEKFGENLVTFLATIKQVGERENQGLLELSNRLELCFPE
# T1 sequence (A0A1D8PS42 1-785 partner): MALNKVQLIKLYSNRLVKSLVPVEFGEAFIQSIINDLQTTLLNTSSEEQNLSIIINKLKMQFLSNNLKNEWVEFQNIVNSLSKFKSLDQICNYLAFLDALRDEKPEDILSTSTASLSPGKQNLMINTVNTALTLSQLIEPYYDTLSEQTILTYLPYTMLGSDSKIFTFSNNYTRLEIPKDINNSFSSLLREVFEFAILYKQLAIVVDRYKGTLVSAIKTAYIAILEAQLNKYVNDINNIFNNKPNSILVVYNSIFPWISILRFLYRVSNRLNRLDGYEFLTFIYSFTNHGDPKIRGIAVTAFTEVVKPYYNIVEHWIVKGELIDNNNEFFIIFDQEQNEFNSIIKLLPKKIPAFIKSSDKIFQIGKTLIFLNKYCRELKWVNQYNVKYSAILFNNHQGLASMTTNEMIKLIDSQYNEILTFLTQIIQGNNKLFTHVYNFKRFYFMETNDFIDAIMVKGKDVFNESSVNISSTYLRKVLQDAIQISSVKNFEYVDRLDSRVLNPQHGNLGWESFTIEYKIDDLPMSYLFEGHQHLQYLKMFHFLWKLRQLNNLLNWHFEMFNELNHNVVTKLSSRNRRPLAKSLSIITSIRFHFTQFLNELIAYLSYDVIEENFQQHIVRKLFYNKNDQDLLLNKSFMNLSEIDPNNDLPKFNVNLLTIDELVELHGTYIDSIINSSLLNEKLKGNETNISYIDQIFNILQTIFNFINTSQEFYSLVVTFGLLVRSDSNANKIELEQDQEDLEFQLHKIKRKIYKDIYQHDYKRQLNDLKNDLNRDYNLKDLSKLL
# Test: cryo-EM structure ([…] Å)
# Conditions: co-purified nucleotide, none added; nucleotide-binding pocket of γ-tubulin; assigned from density lacking γ-phosphate; Table 1 lists 0 ligands in the refined model
compound,measurement,value
Nc1nc2c(ncn2[C@@H]2O[C@H](COP(=O)(O)OP(=O)(O)O)[C@@H](O)[C@H]2O)c(=O)[nH]1 [GDP],cryo-EM structure (3.6 Å),"Our cryo-EM density of the C. albicans γ-TuSC indicates binding of GDP, rather than GTP"

# Reference: PMC7658347, “The cryo-EM structure of a γ-TuSC elucidates architecture and regulation of minimal microtubule nucleation systems” (Nature Communications, 2020)
